Measured values taken from PubChem BioAssay (NCI).
“And” between values parts separate entries of the source, which are not always exact repeats. Identical values can stand only once.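 All cell lines were grown in 96-well plates and treated with compound for 48 hours. At the GI50, growth is halved. TGI is the concentration that stops growth completely.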

Legend:
Experiment in all cases: DTP human tumour cell line panel, 48 h
MDA-MB-435 = tested on: MDA-MB-435
SNB-75 CNS = tested on: SNB-75 CNS
OVCAR-5 ovarian = tested on: OVCAR-5 ovarian
786-0 renal = tested on: 786-0 renal
NCI/ADR-RES ovarian = tested on: NCI/ADR-RES ovarian
NCI-H522 lung = tested on: NCI-H522 lung
HOP-62 NSCLC = tested on: HOP-62 NSCLC
OVCAR-8 ovarian = tested on: OVCAR-8 ovarian
M14 melanoma = tested on: M14 melanoma
PC-3 prostate = tested on: PC-3 prostate

SMILES	TGI (MDA-MB-435)	TGI (SNB-75 CNS)	TGI (OVCAR-5 ovarian) [µM]	TGI (786-0 renal)	TGI (NCI/ADR-RES ovarian) [µM]	TGI (NCI-H522 lung)	TGI (HOP-62 NSCLC)	TGI (OVCAR-8 ovarian)	TGI (M14 melanoma)	TGI (PC-3 prostate)	GI50 (MDA-MB-435)	GI50 (SNB-75 CNS) [µM]	GI50 (OVCAR-5 ovarian) [µM]	GI50 (786-0 renal)	GI50 (NCI/ADR-RES ovarian) [µM]	GI50 (NCI-H522 lung)	GI50 (HOP-62 NSCLC) [µM]	GI50 (OVCAR-8 ovarian)	GI50 (PC-3 prostate) [µM]	GI50 (M14 melanoma)
CC1=C(/C=C/C(C)=C/C=C/C(C)=C/C(=O)O)C(C)(C)CCC1	> 100 µM	> 100 µM	> 85.4	68.1 µM	70	> 83.7 µM	66 µM	> 77.9 µM	71.5 µM	> 100 µM										
CC(=O)O[C@@]1(C)[C@@H](C)C(=O)O[C@@H]2CCN3CC=C(COC(=O)[C@]1(C)O)[C@H]23		> 100 µM	> 100	> 100 µM		> 100 µM	> 100 µM	> 100 µM	> 100 µM											
CC(C(N)C(=O)NC(C(=O)O)C1OC(n2ccc(=O)[nH]c2=O)C(O)C1O)C(O)c1ccc(O)cn1 (centres undefined)	> 100 µM	> 100 µM	> 100	> 100 µM	> 100	> 100 µM	> 100 µM	> 100 µM	> 100 µM	> 100 µM										
OCCNc1nc(Nc2ccc(Cl)c(Cl)c2)nc2ccccc12	20.2 µM	18.7 µM	6.22	11 µM	20	24.5 µM	19.5 µM	17.6 µM		16.6 µM	7.1 µM	4.79	2.21	3.04 µM	4.91	10 µM	5.39	4.79 µM	4.47	
Cc1cccc2c1CCC21OC(=O)c2c1ccc1ccccc21 (centres undefined)		> 100 µM	> 100	> 100 µM		> 100 µM	> 100 µM	> 100 µM	64.8 µM											
CC(C)=CCC/C(C)=C\CCC1(C)OC(=O)C2CC21 (centres undefined)	> 100 µM and 56.7 µM	> 100 µM	> 100	> 100 µM and 32.7 µM	> 100	> 100 µM and 47.1 µM	> 100 µM	> 100 µM and 45.5 µM		> 100 µM and 85.2 µM	73.9 µM and 23.1 µM			> 100 µM and 17.5 µM		52.4 µM and 19.2 µM		71.6 µM and 20.3 µM		
O=C(/C=C/C12c3ccccc3C(c3ccccc31)C1C(=O)NC(=O)C12)c1ccc(F)cc1 (centres undefined)	6.41 µM	2.92 µM	4.12	3.35 µM	4.03	4.98 µM	7.4 µM	4.84 µM	3.96 µM	3.38 µM	2.44 µM	1.39	1.92	1.79 µM	1.87	2.14 µM	2.63	1.86 µM	1.66	1.92 µM
NC1=NN(c2ccccc2)C(=O)C1C(=O)C(=O)Nc1nccs1 (centres undefined)		> 100 µM	> 100	> 100 µM		> 100 µM	> 100 µM	> 100 µM	> 100 µM											
CSc1snc2sc3c(Cl)nnnc3c12		23.7 µM	31	29.7 µM			31.9 µM	21 µM	26.3 µM											
COc1ccc2oc(C(=O)O)c3c2c1CCC3CCC(=O)O (centres undefined)		> 100 µM	> 100	> 100 µM		> 100 µM	> 1 µM	> 100 µM	> 1 µM											
Cn1c(N)nc(=O)c2c1N(C1OC(CO)C(O)C1O)CN2Cc1ccccc1 (centres undefined)		> 100 µM	> 100	> 100 µM		> 100 µM	> 100 µM	> 100 µM	> 100 µM											
CCOC(=O)c1cc(-c2ccccc2)[nH]c1N/N=C/c1ccc(Cl)cc1	> 100 µM	> 100 µM	> 100	> 100 µM	> 100	> 100 µM	> 100 µM	> 100 µM		> 100 µM	> 100 µM	> 100	> 100	50.4 µM	52.6	89.4 µM	87.3	> 100 µM	21.8	
O=C1C2C(C(=O)N1c1ccccc1)C1([N+](=O)[O-])C=C3c4ccccc4N(C(=O)c4ccccc4)C32C2C(=O)N(c3ccccc3)C(=O)C21 (centres undefined)		> 100 µM	> 100	> 100 µM		> 100 µM	> 100 µM	> 100 µM	> 100 µM											
CCc1cc(CCC(=O)Nc2ccccc2[N+](=O)[O-])[nH]c(=S)n1			> 100	> 100 µM			> 100 µM	> 100 µM	> 100 µM											
N#Cc1cc(S(=O)(=O)Nc2nnc(-c3ccccc3)c(-c3ccccc3)n2)c(SCc2ccccc2)cc1Cl	45.1 µM			64.1 µM		> 100 µM	83.5 µM	56.7 µM	80.4 µM	43.2 µM	21.2 µM			24.6 µM		44.5 µM	28.3	28.5 µM	20	27.4 µM
CCc1ccc(C(=Nc2ccc(N(C)C(=O)CN3CCN(C)CC3)cc2)c2c(O)[nH]c3ccc(C(=O)OC)cc23)cc1	1.9 µM	1.52 µM	2.57	1.86 µM		2.38 µM	2.17 µM	3.21 µM	1.69 µM	1.61 µM	0.532 µM	0.17	1.25	0.404 µM		0.586 µM	0.51	0.772 µM	0.292	0.368 µM
COC(=O)C12OCC34C(CC5C(C)C6=CC(=O)OC6=CC5(C)C3C(O)C1O)OC(=O)C(O)C24 (centres undefined)		0.682 µM and 2.48 µM	20.3	5.66 µM			0.704 µM and 3.54 µM	14.7 µM	0.504 µM and 2.22 µM			0.158	0.599	0.31 µM		0.0501 µM	0.177	0.328 µM		0.177 µM and 0.767 µM
C=C(C(=C)N1N=NC2C3CCC(C3)C21)N1N=NC2C3CCC(C3)C21 (centres undefined)		> 100 µM	> 100	> 100 µM		> 100 µM	> 100 µM	> 100 µM	> 100 µM											
O=C(N/N=C1\C(=O)N(c2nccs2)C(=O)C(=O)C1c1nc2ccccc2s1)c1ccccc1O (centres undefined)		> 100 µM	> 100	> 100 µM		96.9 µM	90.4 µM	> 100 µM	> 100 µM											
C/C(O)=C(\C#N)C(=O)Nc1ccc(C(F)(F)F)cc1	> 100 µM	> 100 µM	> 100	> 100 µM	> 100		> 100 µM	> 100 µM	> 100 µM	> 100 µM	37.1 µM	> 100	> 100	34.3 µM	21.4		77.9	13.5 µM	7.97	52.5 µM
